Reference: PMC10619479, “Multicomponent synthesis of pyrido[2,3-b]pyrazine derivatives: electrochemical DNA sensing, nonlinear optical properties and biological activity” (RSC Advances, 2023)

How the values were obtained:
Jack Bean Urease [1] = biological target: T1, Jack Bean Urease (Canavalia ensiformis, UniProt P07374); assay: indophenol urease inhibition assay (ammonia release, […] nm); assay type: biochemical
Description: The determination of the IC50 values entails subjecting both standard and synthesized compounds

Jack Bean Urease [2] = biological target: T1, Jack Bean Urease; assay: biochemical; parameters: Jack bean urease inhibition, ammonia release by indophenol method, absorbance at 625 nm
Method: The enzyme responsible for catalyzing urea, known as urease, helps for the conversion of urea into carbon dioxide (CO2) through hydrolysis. To monitor the production of ammonia (NH3) and inhibit urease activity, we employed the indophenol method.[42] In the reaction mixture, consisting of Jack Bean Urease (200 μL), a buffer with a pH of 8.25 (400 μL, composed of 0.5 mM EDTA, 0.02 M K2HPO4, 0.02 M LiCl, and 120 mM urea), and test compounds (100 μL), incubation was carried out at 25 °C for approximately 30 minutes. […] In the realm of scientific investigation, thiourea functions as a benchmark inhibitor. The determination of the IC50 values entails subjecting both standard and synthesized compounds to varying concentrations under identical experimental conditions.[43,44] […] Thiourea was used as a reference point to assess the effects of substituents about the pyrido[2,3-b]pyrazine based scaffold on their urease inhibitory potential.

T1 sequence (P07374 whole entry): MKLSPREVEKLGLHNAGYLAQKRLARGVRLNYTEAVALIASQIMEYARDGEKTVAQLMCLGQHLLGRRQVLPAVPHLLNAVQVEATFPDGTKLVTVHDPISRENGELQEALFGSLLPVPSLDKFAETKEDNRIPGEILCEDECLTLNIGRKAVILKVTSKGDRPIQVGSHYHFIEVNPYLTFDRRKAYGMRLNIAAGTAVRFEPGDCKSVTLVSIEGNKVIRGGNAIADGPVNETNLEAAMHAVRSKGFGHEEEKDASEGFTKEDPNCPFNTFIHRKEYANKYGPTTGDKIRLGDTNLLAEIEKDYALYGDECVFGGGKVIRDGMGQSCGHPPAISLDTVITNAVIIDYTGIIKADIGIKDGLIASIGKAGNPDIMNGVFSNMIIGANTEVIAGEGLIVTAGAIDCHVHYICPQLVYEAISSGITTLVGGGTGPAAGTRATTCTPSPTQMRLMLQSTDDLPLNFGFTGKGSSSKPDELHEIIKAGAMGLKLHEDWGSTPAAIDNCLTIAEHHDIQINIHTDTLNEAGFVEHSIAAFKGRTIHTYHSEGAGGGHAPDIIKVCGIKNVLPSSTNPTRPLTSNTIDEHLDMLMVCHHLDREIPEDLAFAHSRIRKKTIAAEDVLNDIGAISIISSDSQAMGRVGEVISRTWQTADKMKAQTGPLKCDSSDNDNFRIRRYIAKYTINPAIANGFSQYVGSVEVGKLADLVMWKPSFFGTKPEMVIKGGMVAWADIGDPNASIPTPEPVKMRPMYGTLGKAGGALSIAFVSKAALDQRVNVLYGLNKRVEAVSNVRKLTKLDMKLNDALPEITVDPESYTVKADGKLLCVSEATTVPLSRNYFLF

Row | IC50 (Jack Bean Urease [2]) [µM] | Compound | IC50 (Jack Bean Urease [1]) [µM]
1 | 6.79 ± 0.92 | O=Cc1ccc(C2C3=C(Nc4nccnc42)c2ccccc2C3=O)cc1 (centres unmarked) [compound 4] | –
2 | 4.77 ± 0.92 | O=C1C2=C(Nc3nccnc3C2c2ccc([N+](=O)[O-])cc2)c2ccccc21 (centres unmarked) [compound 6] | –
3 | 11.9 ± 0.34 | COc1ccc(C2C3=C(Nc4nccnc42)c2ccccc2C3=O)cc1 (centres unmarked) [compound 7] | –

Further lines, the compound ahead of its results:

Row | Compound | IC50 (Jack Bean Urease [2]) [µM] | IC50 (Jack Bean Urease [1]) [µM]
4 | O=C1C2=C(Nc3nccnc3C2c2ccc(Cl)cc2)c2ccccc21 (centres unmarked) [compound 5] | – | 4.12 ± 1.18
5 | NC(N)=S [thiourea] | 1.94 ± 0.36 | –
